Results from patent US7160992B2, “Amino-modified polysaccharides and methods of generating and using same” (Yeda Research and Development Co., Ltd., priority 2003, dated 2007).
Values after ≈ are worked out from the molar mass of the structure shown. Values joined by “and” are separate entries in the source; they are usually repeats but may differ in a detail not shown here. Identical values can stand only once. Like-named read-outs stand apart in the source and are kept apart here.

Key:
HIV-1 isolates = conditions: Cabrera et al., 2002; cited from earlier work
[1] = test system: NeoR6 resistant HIV-1 isolates; test: Inhibition of NeoR6 resistant HIV-1 isolates in MT2 or cMAGI cells; assay type: cell-based
Description: (§1) The cMAGI assay is based on the ability of HIV-1 TAT to transactivate the expression of an integrated β-galactosidase reporter gene driven by the HIV-LTR [Chackerian, B. et al., 1997. J Virol. 71: 3932–3939; Collins, K. B. et al., 2000. Nat. Med. 6: 475–479]. The β-galactosidase reporter has been modified to remain localized in the nucleus where it can be detected with the X-gal substrate as an intense nuclear stain within a few days of infection. The X-gal substrate used was 5-bromo-4-chloro-3-indoyl-beta-D-galactopyranoside. HIV1IIIB was propagated by subculture in MT2 as described previously [Litovchick (2001) Supra]. Aliquots of cell-free culture supernatants were used as viral inoculum. […] The cytopathic effects of the viral infection of MT2 cells were analyzed by microscopic assessment of syncytium formation. These latter data were obtained by analysis of duplicate samples by two independent observers. HIV-1 infection of cMAGI cells was determined by counting the number of HIV-1 infected cells (stained blue).
Culture fluids were replaced […] weekly with fresh medium containing an appropriate drug concentration. […] From the final cycle of each experiment the resistant virus was propagated as described above.

HIV-1IIIB wild type = test: Inhibition of HIV-1IIIB wild type in MT2 or cMAGI cells; assay type: cell-based
Description: as §1

CXCR4 = molecular target: T1, CXCR4 (Homo sapiens, UniProt P61073); test: Inhibition of anti-CXCR4 mAb 12G5 binding to cells, flow cytometry; assay type: cell-based; conditions: for reduction of 12G5 mAb binding to the cells / median fluorescence intensity (MFI) of PE-12G5 in presence of AAC: 10 μM AAC; for reduction of 12G5 mAb binding to the cells: PM1 cells, 30 min at 4° C.; for median fluorescence intensity (MFI) of PE-12G5 in presence of AAC: mAb alone 451, isotype control 30
T1 construct: endogenous in cells; host or cells: PM1 cells and PBMC
Procedure: FIGS. 11a–d are graphs depicting the binding of AACs to CXCR4 in the presence of anti CXCR4 antibody (12G5). PM1 cells were incubated with PE-conjugated isotype control mAb, PE-anti CXCR4 conjugated mAb (12G5) alone, or in the presence of the indicated AACs for 30 min at 4° C. The cells were then washed twice with PBS and analyzed by flow cytometry. The MFI values are shown in parenthesis.
Interaction of AACs with CXCR4 was determined by flow cytometry (FACScan, Becton Dickinson) as described recently (Litovchick et al., 2001, supra). Briefly, 0.5×10^6 cells were washed in ice-cold PBS containing 0.1% sodium azide (wash buffer) and incubated at 4° C. with anti-CXCR4 mAb, 12G5 (PharMingen, San Diego, Calif.) conjugated to phycoerithrine (PE), in the absence or presence of different concentrations of the AACs. After 30 min of incubation, the cells were washed with ice-cold wash buffer and fixed in PBS containing 1% paraformaldehyde. Non-specific fluorescence was assessed by using isotype-matched control. For each sample 10,000 events were acquired. Data were analyzed and processed using CellQuest™ software (Becton Dickinson).

TAR = conditions: in contrast to Tat peptide (R52) or AACs; cited from earlier work
TAR or RRE RNAs = conditions: cited from earlier work
CCR5 = molecular target: T2, CCR5 (Homo sapiens, UniProt P51681); conditions: PHA stimulated peripheral blood lymphocytes; cited from earlier work
T2 construct: in PHA stimulated peripheral blood lymphocytes (PBL); host or cells: PHA stimulated peripheral blood lymphocytes (PBL)

CD4 = molecular target: T3, CD4 (Homo sapiens, UniProt P01730); conditions: PHA stimulated peripheral blood lymphocytes; cited from earlier work
T3 construct: in PHA stimulated peripheral blood lymphocytes (PBL); host or cells: PHA stimulated peripheral blood lymphocytes (PBL)

HIV-1 clade C = test: Replication of HIV-1 clade C in MT2 cells, tetrazolium viability; assay type: cell-based; conditions: present throughout infection or only the first two hours; NeoR6 2–20 μM, R3G 5–40 μM
Procedure: Infected cells were washed, seeded in 96-well plate (5×10^4 cells per well) and incubated for 4 days in the absence or presence of various drug concentrations, until syncytia were observed (>25% ctu). Cell viability was measured by tetrazolium-based colorimetric method. The results shown are mean ±standard deviation of triplicates. Circles denote the presence of AACs during the infection step and after the cells were washed; Squares denote the presence of AACs only during the first 2 hours prior to washing.

[2] = test system: lymphocytes, PBMC and neurons; conditions: cited from earlier work
S. epidermidis = test: Minimal inhibitory concentration, serial two-fold dilutions in TSB; assay type: cell-based
TAR RNA = test: Fluorescence anisotropy: RhdRev binding and AAC competition for TAR RNA; set-up: species or system HIV-1
[3] = test system: U38, PM1, H9 cells and PBMC; test: Cellular uptake of AAC-FITC fluorescent probes, fluorescence microscopy; assay type: cell-based; conditions: 0.5 μM, 10 minutes of incubation
Procedure: Images were obtained using a Zeiss Axiophot microscope.
Cellular uptake using AAC fluorescent probes—U38, PM1, H9 cells and PBMC(10^5) were incubated for 20 minutes at room temperature in 100 μl RPMI 1640 medium (Gibco-BRL, Life-Technologies, UK) including AAC-FITC derivatives as indicated at a final concentration of 0.5 μM. Cells were washed twice, resuspended in 100 μl medium and analyzed with a Zeiss Axiophot fluorescent microscope.

ICR (CD-1) mice = test: Acute intravenous toxicity of NeoR6 in mice; assay type: in vivo
Procedure: Injection volumes applied ranged from 4–10 ml/kg
Observation of clinical signs post-NeoR6 injection—On the day of injection, careful clinical examinations were carried out continuously during the first 90 minutes post-injection. Thereafter, animals were inspected at least once a day for 14 consecutive days. Observations included changes in the skin and fur, eyes and mucous membranes, respiratory, circulatory, autonomic and central nervous systems, somatomotor activity and behavior pattern with particular attention to occurrence of tremors, convulsions, salivation, diarrhea, lethargy, sleep and coma.
Necropsy and Gross Pathology—All test animals, including decedents were subjected to gross necropsy. At necropsy all animals were thoroughly examined for abnormality of tissues or organs. All major body cavities were opened, larger organs were sectioned and the gastro-intestinal tract was opened at intervals for examination of the mucosal surfaces. The normal appearance of major organs was confirmed for each animal and any gross pathological changes or abnormalities were described.

cMAGI cells = test: Competition between FITC-labelled AACs and RANTES; assay type: cell-based; conditions: 2.5 mM RANTES
Procedure: Competition between FITC labelled AACs (1 mM) and RANTES (2.5 mM, Pepro Tech Inc., New Jersey, USA) was effected in 2×10^5 cMAGI cells. Following 30 min of incubation, cells were washed with ice-cold wash buffer and analysed by flow cytometry as described above.

E. coli = test: Minimal inhibitory concentration, serial two-fold dilutions in TSB; assay type: cell-based
B. subtilis = test: as above; assay type: cell-based
RRE IIB RNA = test: Fluorescence anisotropy: RhdRev binding and AAC competition for RRE IIB RNA; set-up: species or system HIV-1
P. aeruginosa = test: Minimal inhibitory concentration, serial two-fold dilutions in TSB; assay type: cell-based
S. aureus = test: as above; assay type: cell-based
E. faecalisr = test: as above; assay type: cell-based
Gram-positive bacteria = test: Minimal inhibitory concentration, Gram-positive bacteria as a group; assay type: cell-based; conditions: range over susceptible Gram-positive bacteria
[4] = NeoR6 resistant isolates after 25 passages, mean and standard deviation of three separate experiments, read-out: EC50, NeoR6RES
[5] = HIV-1IIIB wt, mean and standard deviation of three separate experiments, read-out: EC50, Wild-type

T1 sequence (P61073 whole entry): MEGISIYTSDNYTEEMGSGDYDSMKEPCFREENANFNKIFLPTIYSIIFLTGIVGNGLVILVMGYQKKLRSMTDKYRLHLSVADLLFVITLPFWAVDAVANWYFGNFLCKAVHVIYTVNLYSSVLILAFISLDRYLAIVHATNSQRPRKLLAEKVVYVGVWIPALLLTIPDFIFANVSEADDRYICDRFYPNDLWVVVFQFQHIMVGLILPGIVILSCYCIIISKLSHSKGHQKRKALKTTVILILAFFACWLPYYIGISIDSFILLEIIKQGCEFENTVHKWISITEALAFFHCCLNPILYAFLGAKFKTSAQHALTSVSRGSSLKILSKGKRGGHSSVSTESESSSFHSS
T2 sequence (P51681 whole entry): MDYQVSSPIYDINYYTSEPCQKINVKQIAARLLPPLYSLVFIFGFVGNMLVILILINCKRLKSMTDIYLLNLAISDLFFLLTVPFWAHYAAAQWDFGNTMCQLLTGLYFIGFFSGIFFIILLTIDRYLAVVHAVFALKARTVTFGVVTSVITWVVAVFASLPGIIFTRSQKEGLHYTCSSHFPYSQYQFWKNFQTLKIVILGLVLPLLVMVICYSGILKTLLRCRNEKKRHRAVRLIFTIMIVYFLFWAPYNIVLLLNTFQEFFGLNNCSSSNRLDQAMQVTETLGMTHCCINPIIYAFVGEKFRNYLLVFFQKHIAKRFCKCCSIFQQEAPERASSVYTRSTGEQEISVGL

## SDF-1α
HIV-1 isolates
  anti-HIV-1 EC50, fold lower than that of NeoR6: ~70 fold
[1]; NeoR6 resistant HIV-1 isolates, text of b338
  EC50: 1 µg/mL
[1]; [4]
  EC50: 180 ± 70 nM
HIV-1IIIB wild type; [5]
  EC50: 200 ± 50 nM
HIV-1IIIB wild type; wt HIV-1 isolate, text of b338
  EC50: 1 µg/mL
CXCR4; 62.5 and 125 nM SDF-1α, control
  inhibition of PE-12G5 binding to PM1 cells by SDF-1α: inhibited significantly

## N=C(N)NCCCC(=O)NCC1OC(OC2C(NC(=O)CCCNC(=N)N)CC(NC(=O)CCCNC(=N)N)C(OC3OC(CO)C(O)C(NC(=O)CCCNC(=N)N)C3O)C2O)C(O)C(O)C1O (stereo not drawn) [GB4K, kanamycine A conjugated to four γ-guadinno butiric acid]
TAR
  protection of the bulge region of TAR from RNase A cleavage: cannot protect the bulge region of TAR from RNase A cleavage
TAR or RRE RNAs
  affinity to TAR or RRE RNAs (in words): very low affinity

## CNC(C)C1CCC(NC(=O)C(N)CCCNC(=N)N)C(OC2C(NC(=O)C(N)CCCNC(=N)N)CC(NC(=O)C(N)CCCNC(=N)N)C(OC3OCC(C)(O)C(NC)C3O)C2O)O1 (stereo not drawn) [R3G, tri-arginine gentamycin C1 conjugate, reference compound]
CCR5
  inhibition of binding of 2D7, a mAb directed to CCR5: neither R3G nor R4K or NeoR6 inhibit the binding
CD4
  inhibition of binding of anti CD4 antibody (Leu 3a): neither R3G nor R4K or NeoR6 inhibit the binding
HIV-1 clade C
  inhibition of viral proliferation (in words): could inhibit viral proliferation
[1]; [4]
  EC50: 21000 ± 8800 nM
[1]; NeoR6 resistant isolates, following 25 passages
  times more resistant than the wild type virus: ~5
HIV-1IIIB wild type; [5]
  EC50: 4100 ± 2400 nM
[2]
  accumulation in cells: accumulate in different cell types
CXCR4
  reduction of 12G5 mAb binding to the cells: 84%
  median fluorescence intensity (MFI) of PE-12G5 in presence of AAC: 89

## NC(N)=NCCC[C@H](N)C(=O)NC[C@@H]1OC(O[C@H]2[C@@H](O)[C@H](O[C@@H]3[C@@H](O)[C@H](NC(=O)[C@@H](N)CCCN=C(N)N)C[C@H](NC(=O)[C@@H](N)CCCN=C(N)N)[C@H]3O[C@H]3O[C@H](CNC(=O)[C@@H](N)CCCN=C(N)N)[C@@H](O)[C@H](O)[C@H]3NC(=O)[C@@H](N)CCCN=C(N)N)O[C@@H]2CO)[C@H](NC(=O)[C@@H](N)CCCN=C(N)N)[C@@H](O)[C@@H]1O (stereo partly drawn) [NeoR6, Neomycin hexa-arginine conjugate]
S. epidermidis
  MIC: 0.78 µg/mL (≈ 0.503 µM)
TAR RNA; competition of AACs with RhdRev (10 nM) for TAR RNA (20 nM) binding, 85 mM NaCl
  Kd: 5 nM
TAR RNA; competition of AACs with RhdRev for TAR RNA binding
  IC50: 19.9 ± 2.7 nM
TAR RNA; up to 20 μM of AAC
  competition with RhdRev for TAR RNA binding (in words): efficiently competed
CCR5
  inhibition of binding of 2D7, a mAb directed to CCR5: neither R3G nor R4K or NeoR6 inhibit the binding
[3]
  cellular uptake of FITC-labeled AAC by PM1 cells: uptaken by PM1 cells
CD4
  inhibition of binding of anti CD4 antibody (Leu 3a): neither R3G nor R4K or NeoR6 inhibit the binding
ICR (CD-1) mice; 50 mg/kg as 2 successive injections, interdosing interval of 3 hours
  adverse effects: did not cause any adverse effects other than a very transient reduction in respiratory rate and spontaneous motor activity
ICR (CD-1) mice; 14-day observation period, all mice except 2 females (10 or 30 mg/kg)
  weight gain (in words): normal mode of weight gain
ICR (CD-1) mice; acute IV administration
  maximum tolerated dose (MTD): 30 to 35 mg/kg
ICR (CD-1) mice; decedent and surviving animals
  pathological findings at necropsy: no pathological findings
ICR (CD-1) mice; group 2F, 1 female, 15 mg/kg single bolus
  Weight Gain (gr.) (Day 1–15): 4.3 gr.
ICR (CD-1) mice; group 3F, 1 female, 25 mg/kg single bolus
  Weight Gain (gr.) (Day 1–15): 5.3 gr.
ICR (CD-1) mice; group 4F, 2 females, 30 mg/kg single bolus, one survivor
  Weight Gain (gr.) (Day 1–15): 1.6; — gr.
ICR (CD-1) mice; single IV 30 and 35 mg/kg, confined to the first 10 min after dosing
  clinical signs: respiratory and motoric irregularities
ICR (CD-1) mice; single female mouse, 30 mg/kg IV
  mortality: died within the first five minutes post-injection
ICR (CD-1) mice; single intravenous administration, 10, 15 and 25 mg/kg
  reaction to treatment: No obvious reaction to treatment
ICR (CD-1) mice; two single doses of 25 mg/kg of body weight over the course of 2 hours
  toxicity when given intravenously: non-toxic
cMAGI cells
  effect of RANTES on uptake of FITC derivative: did not affect uptake
E. coli
  MIC: 100 µg/mL (≈ 64.4 µM)
B. subtilis
  MIC: 1.56 µg/mL (≈ 1.01 µM)
RRE IIB RNA; competition of AACs with RhdRev (10 nM) for RRE IIB RNA (20 nM) binding, 85 mM NaCl
  Kd: 23 nM and 23.3 nM
RRE IIB RNA; competition of AACs with RhdRev for RRE IIB RNA binding
  IC50: 72.7 ± 10.1 nM
P. aeruginosa
  MIC: 100 µg/mL (≈ 64.4 µM)
S. aureus
  MIC: 6.25 µg/mL (≈ 4.03 µM)
E. faecalisr
  MIC (mg/L): ≧200 mg/L
HIV-1IIIB wild type; [5]
  EC50: 1900 nM
[2]
  accumulation in cells: accumulate in different cell types
Gram-positive bacteria
  MIC values, Gram-positive bacteria: 0.78 to 6.25 µg/mL
CXCR4
  reduction of 12G5 mAb binding to the cells: 90%
  median fluorescence intensity (MFI) of PE-12G5 in presence of AAC: 76
